# Laboratory results taken from patent US9975874B2, “Factor XIa inhibitors” (Merck Sharp & Dohme Corp., priority 2014, dated 2018).
# Experiments:
# [1] = molecular target: purified Human plasma kallikrein (Homo sapiens (Human), UniProt P03952); assay: Kallikrein Assay; type: biochemical; settings: Plasma kallikrein; substrate Acetyl-K-P-R-AFC, 0.5 nM enzyme, pH 7.4; read-out: PK IC50
# Experimental: (§1) The effectiveness of a compound of the present invention as an inhibitor of Kallikrein can be determined using a relevant purified serine protease, and an appropriate synthetic substrate. The rate of hydrolysis of the chromogenic or fluorogenic substrate by the relevant serine protease was measured both in the absence and presence of compounds of the present invention. Assays were conducted at room temperature or at 37° C. […] A decrease in the rate of fluorescence change in the presence of inhibitor is indicative of enzyme inhibition. Such methods are known to one skilled in the art. The results of this assay are expressed as the inhibitory constant, Ki.
# Kallikrein determinations were made in 50 mM HEPES buffer at pH 7.4 containing 150 mM NaCl, 5 mM CaCl2, and 0.1% PEG 8000 (polyethylene glycol; Fisher Scientific). Determinations were made using purified Human plasma kallikrein at a final concentration of 0.5 nM (Enzyme Research Laboratories) and the synthetic substrate, Acetyl-K-P-R-AFC (Sigma # C6608) at a concentration of […].
# Times required to achieve equilibration between enzyme and inhibitor were determined in control experiments. The reactions were performed under linear progress curve conditions and fluorescence increase measured at 405 Ex/510 Em nm. […] IC50 was determined by inflection point from a four parameter logistic curve fit. Ki was calculated using the Cheng Prusoff equation, Ki=IC50/(1+([S]/Km)).
# [2] = molecular target: purified human Factor XIa (Homo sapiens (Human), UniProt P03951); assay: Factor XIa Assay; type: biochemical; settings: substrate Z-Gly-Pro-Arg-AFC 100 μM, 40 pM enzyme, pH 7.4; read-out: FXIa IC50
# Experimental: as §1, with “Coagulation Factor XIa” for “Kallikrein”, “The results of this assay are expressed as the inhibitory constant, Ki.” left out
# Factor XIa determinations were made in 50 mM HEPES buffer at pH 7.4 containing 150 mM NaCl, 5 mM CaCl2, and 0.1% PEG 8000 (polyethylene glycol; JT Baker or Fisher Scientific). Determinations were made using purified human Factor XIa at a final concentration of 40 pM (Sekisui Diagnostics) and the synthetic substrate, Z-Gly-Pro-Arg-AFC, TFA salt (Sigma #C0980) at a concentration of 100 μM.
# Times required to achieve equilibration between enzyme and inhibitor were determined in control experiments. Initial velocities of product formation in the absence (Vo) or presence of inhibitor (Vi) were measured. Assuming competitive inhibition, and that unity is negligible compared Km/[S], [I]/e, and [I]/e (where [S], [I], and e respectively represent the total concentrations, of substrate, inhibitor and enzyme), the equilibrium constant (Ki) for dissociation of the inhibitor from the enzyme can be obtained from the dependence of Vo/Vi on [I] shown in the following equation.
# Sequence of purified Human plasma kallikrein (P03952 391-638): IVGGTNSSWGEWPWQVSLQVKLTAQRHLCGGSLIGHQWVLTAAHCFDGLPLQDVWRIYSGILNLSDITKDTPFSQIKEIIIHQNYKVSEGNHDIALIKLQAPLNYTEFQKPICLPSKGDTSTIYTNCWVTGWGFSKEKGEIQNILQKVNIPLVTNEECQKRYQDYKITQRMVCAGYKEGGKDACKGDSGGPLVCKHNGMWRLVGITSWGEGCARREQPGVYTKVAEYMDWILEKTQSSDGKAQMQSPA
# Sequence of purified Human plasma kallikrein (P03952 20-390 partner): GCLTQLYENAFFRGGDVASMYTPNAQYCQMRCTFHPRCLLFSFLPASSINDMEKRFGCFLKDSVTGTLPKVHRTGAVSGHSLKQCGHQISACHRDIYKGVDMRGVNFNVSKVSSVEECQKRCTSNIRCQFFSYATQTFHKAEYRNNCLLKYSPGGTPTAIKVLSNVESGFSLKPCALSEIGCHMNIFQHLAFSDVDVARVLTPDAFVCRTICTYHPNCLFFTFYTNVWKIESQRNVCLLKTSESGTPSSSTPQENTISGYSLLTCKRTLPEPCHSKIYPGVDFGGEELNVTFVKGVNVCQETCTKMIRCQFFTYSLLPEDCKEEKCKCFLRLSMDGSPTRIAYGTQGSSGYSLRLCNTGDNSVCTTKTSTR
# Sequence of purified human Factor XIa (P03951 388-625): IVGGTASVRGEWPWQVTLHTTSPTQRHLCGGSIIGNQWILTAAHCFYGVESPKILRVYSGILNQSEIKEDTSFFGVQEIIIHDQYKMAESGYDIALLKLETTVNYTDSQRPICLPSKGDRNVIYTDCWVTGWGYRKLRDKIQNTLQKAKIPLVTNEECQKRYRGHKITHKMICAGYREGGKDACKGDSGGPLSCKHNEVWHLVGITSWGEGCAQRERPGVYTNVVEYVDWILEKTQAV
# Sequence of purified human Factor XIa (P03951 19-387 partner): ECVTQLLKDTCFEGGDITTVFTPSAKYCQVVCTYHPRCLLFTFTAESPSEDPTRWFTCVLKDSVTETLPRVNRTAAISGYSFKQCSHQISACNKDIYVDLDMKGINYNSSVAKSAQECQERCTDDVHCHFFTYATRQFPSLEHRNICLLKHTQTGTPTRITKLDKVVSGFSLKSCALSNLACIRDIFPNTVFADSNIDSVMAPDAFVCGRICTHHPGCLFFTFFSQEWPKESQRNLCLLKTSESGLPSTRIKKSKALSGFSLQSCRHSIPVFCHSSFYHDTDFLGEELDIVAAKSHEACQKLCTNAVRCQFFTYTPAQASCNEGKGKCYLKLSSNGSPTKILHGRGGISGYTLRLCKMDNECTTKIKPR
IC50 [1] [nM],IC50 [2] [nM],SMILES
614,13.2,"O=C(NC1CCC1)N1CCC(c2cccc([C@H](Cc3ccccc3)c3ccc(-c4cc(Cl)ccc4-n4cnnn4)c[n+]3[O-])c2)CC1 [Example 51, 4-{3-[(1S)-1-{5-[5-chloro-2-(1H-tetrazol-1-yl)phenyl]-1-oxidopyridin-2-yl}-2-phenylethyl]phenyl}-N-cyclobutyl piperidine-1-carboxamide]"
384,6.48,"O=C(NCC1CCOC1)N1CCC(c2cccc([C@H](Cc3ccccc3)c3ccc(-c4cc(Cl)ccc4-n4cnnn4)c[n+]3[O-])c2)CC1 (stereo partly drawn) [Example 52, 4-{3-[(1S)-1-{5-[5-chloro-2-(1H-tetrazol-1-yl)phenyl]-1-oxidopyridin-2-yl}-2-phenylethyl]phenyl}-N-(tetrahydrofuran-3-ylmethyl) piperidine-1-carboxamide]"
